“Also recorded” adds a separate entry of the source. Where two headings read alike, the source gives them in different places.
Experiments:
[1] = cited from earlier work; for vegetotropic and antiepileptic effect: among tranquilizers; for relaxing effect and sluggishness: taken over prolonged periods of time; for effect of other treatments: aforesaid diseases
[2] = chemical stability / shelf life; type: physicochemical
Text: Hydrazide of diphenylphosphenylacetic acid is a bitter-tasting odorless white powder.

solubility = type: physicochemical
Text: Hydrazide of diphenylphosphinylacetic acid is a bitter-tasting odorless white crystalline powder. It is soluble in water (1:100), alcohol and chloroform, but insoluble in benzene and ether.

[3] = sedative effect / depression in animals; type: in vivo, mice and rats
[4] = test system: orientating reaction in mice; assay: orientating reaction in mice; type: in vivo; conditions: intra-abdominal, 1/8 DMT, one hour before
[5] = test system: hexenal, barbamil, urethane and chloral hydrate effect; assay: interaction with narcotics and soporifics (hexenal, barbamil, urethane, chloral hydrate); type: in vivo
Text: (§1) A dose as low as 1/5 DMT potentiates barbamil.

monoaminooxidaze = monoaminooxidaze suppression, inferred from hexenal sleep; type: in vivo; conditions: concluded from equal hexenal sleep at 2 and 22 hours
Text: as §1

body temperature of mice = type: in vivo; conditions: for decrease of body temperature (hypothermal effect): 200 mg/kg (DMT)
[6] = test system: hypothermal effect of aminazine (chlorpromazine); assay: hypothermal effect of aminazine (chlorpromazine); conditions: in vivo
[7] = test system: separated intestines; blood pressure and respiration of rabbits; assay: peripheral adrenolytic effect: separated intestines, blood pressure and respiration of rabbits
[8] = test system: action of serotonin on a separated rat's intestine; assay: separated intestine with serotonin
[9] = test system: serotonin content in brain tissue; assay: serotonin content in brain tissue of mice; type: in vivo
effects of nibuphin = assay: synergism with nibuphin; conditions: in vivo
[10] = test system: convulsant effects of corasole and caffeine; assay: sensitivity of mice to the convulsant effects of corasole and caffeine; type: in vivo
cumulative effect = conditions: in vivo
[11] = test system: apomorphine toxicity and stereotypy; assay: apomorphine toxicity and stereotypy; type: in vivo, mice
[12] = test system: nicotine-induced convulsions; assay: nicotine-induced convulsions in mice; type: in vivo
arecoline tremor = assay: M-cholinolytic effect: arecoline tremor in mice; type: in vivo
[13] = test system: convulsions caused by corasole, strychnine, and electroconvulsion therapy; assay: convulsions caused by corasole, strychnine and electroconvulsion therapy; type: in vivo, animals
Text: (§2) As regards the effects of the proposed preparation on convulsions induced in animals in the course of an experiment, the mechanism of action appears to be more complicated.

[14] = test system: epileptic seizures caused by microinjections of penicillin; assay: epileptic seizures caused by microinjections of penicillin into the hippocamp; type: in vivo; conditions: rabbits, 20 to 100 mg/kg
Text: as §2

[15] = test system: sympathoadrenal and hypothalamohypophysioadrenal systems; assay: clinical studies of vegetovascular dystonia; type: in vivo, patients; conditions: 32 cases
local irritant effect = conditions: in vivo
[16] = acute toxicity / tolerance dose; conditions: in vivo
[17] = behavior of rabbits after intramuscular administration; type: in vivo; conditions: 50 mg/kg
[18] = prolonged treatment, anatomical and histological examination, mice; type: in vivo; conditions: intraperitoneal, 35 mg/kg (1/9 LD50)
[19] = prolonged treatment, anatomical and histological examination, rabbits; type: in vivo; conditions: intramuscular, 50 mg/kg
[20] = clinical: hypothalamic syndrome with sympathoadrenal crises; type: in vivo, patients; conditions: of 20 cases
Text: In 12 cases the number and intensity of fits were reduced and general improvement was observed. Earlier, all the patients had been repeatedly admitted to neurological hospitals where they were subjected to different forms of treatment, including drug therapy with the use of tranquilizers of the benzodiazepin derivatives. The effect of such treatment was quite moderate and unstable and was only manifest in a reduced number of fits and a slight improvement of the general state of the patients.

[21] = clinical: neurasthenia with vegetovascular dystonia; type: in vivo, patients
[22] = clinical: acute alcoholic abstinence; type: in vivo, patients; conditions: of 30 alcoholics; first two days; placebo 10 of 30
Text: On the whole, the proposed preparation reduced the period of abstinence 2- to 3-fold.

[23] = clinical: temporal lobe epilepsy; type: in vivo, patients
Text: Good results were also obtained in treating 18 cases of temporal lobe epilepsy with predominant psychosensory, psychomotor, vegetative and emotional fits. For a number of years, all the patients had been given anticonvulsants and tranquilizers which were derivatives of benzodiazepin. In most of these cases conventional treatment had been ineffective. The proposed preparation brought about a dramatic change: in 14 cases the attacks either ceased completely or their frequency was reduced by more than half.

[24] = clinical safety on prolonged use; type: in vivo, patients
Text: The proposed preparation can be used for treating both young and old patients, as well as those having concomitant diseases of internal organs.

cholinesterase = assay: anticholinesterase properties
phenamine stereotypy = phenamine stereotypy in rats
lethal dose of cocaine = lethal dose of cocaine in mice
[25] = clinical investigation in neurotic and psychic disorders
[26] = test system: convulsant effects of corasole and caffeine; conditions: mice; comparison drug; cited from earlier work

CNC1=Nc2ccc(Cl)cc2C(c2ccccc2)=[N+]([O-])C1 [chlorodiazepoxide]
vegetotropic and antiepileptic effect [1]: most pronounced vegetotropic and antiepileptic effect
relaxing effect and sluggishness [1]: manifest a relaxing effect and produce sluggishness

CCN(CC)CCOC(=O)c1ccc(N)cc1 [novocain]
effect of other treatments [1]: only a limited and short-lived effect

NNC(=O)CP(=O)(c1ccccc1)c1ccccc1 [Hydrazide of diphenylphosphinylacetic acid]
shelf life [2]: longer than two years
chemical stability ([2]; powder and solution): chemically stable both in the form of powder and solution
solubility in alcohol (solubility; alcohol): soluble
solubility in benzene (solubility; benzene): insoluble
solubility in chloroform (solubility; chloroform): soluble
solubility in ether (solubility; ether): insoluble
sedative effect ([3]; animals): pronounced sedative effect
lowest dose causing depression ([3]; mice and rats): 1/3
depression (without "on-side" position) ([3]; mice and rats, tolerance doses, beginning with 1/3 DMT): causes depression in mice and rats
effect on orientating reaction [4]: affects the orientating reaction in mice
lowest dose potentiating barbamil ([5]; barbamil): 1/5
duration of hexenal sleep ([5]; hexenal given 2 and 22 hours after the preparation): induces sleep of equal duration
potentiation of narcotics and soporifics ([5]; in vivo): potentiates hexenal, barbamil, urethane and chloral hydrate; also recorded: exhibits the properties of a true Brodie potentiator
suppression of monoaminooxidaze activity (monoaminooxidaze): does not suppress the monoaminooxidaze activity
effect on body temperature (body temperature of mice; 30 mg/kg (1/7 DMT)): no effect
effect on body temperature (body temperature of mice; 60 mg/kg (printed 166 DMT)): no effect
decrease of body temperature (hypothermal effect) (body temperature of mice; 1.5 hours): 4.3 °C
decrease of body temperature (hypothermal effect) (body temperature of mice; 3 hours): 3.4 °C
effect on hypothermal effect of aminazine (chlorpromazine) [6]: intensifies the hypothermal effect
peripheral adrenolytic effect [7]: no peripheral adrenolytic effect
antagonism of serotonin on separated intestine [8]: prevents the action of serotonin
serotonin content in brain tissue [9]: decreases the serotonin content
synergism with nibuphin (effects of nibuphin): synergism
sensitivity to convulsant effects of corasole and caffeine [10]: increases the sensitivity of mice
cumulative effect (cumulative effect): no cumulative effect
effect on toxicity of apomorphine ([11]; mice): does not intensify the toxicity of apomorphine in mice
effect on duration of apomorphine stereotypy ([11]; mouse, in vivo): nor does it affect the duration of apomorphine stereotypy
nicotine-induced convulsions [12]: relieve nicotine-induced convulsions in mice
increase of survival rate ([12]; nicotine-induced convulsions): 50%
effect on arecoline tremor (arecoline tremor; mice): does not mitigate arecoline tremor in mice
effect on duration of arecoline tremor (arecoline tremor; mice): nor does it affect its duration
M-cholinolytic effect (arecoline tremor; mouse, in vivo): no M-cholinolytic effect
prevention of convulsions [13]: does not prevent convulsions
epileptic seizures [14]: prevents or reduces the frequency of epileptic seizures
excretion of adrenalin and 17-oxycorticosteroids with urine [15]: pronounced normalization
extraction of norepinephrine [15]: tendenecy towards a normalized extraction
functions of sympathoadrenal and hypothalamohypophysioadrenal systems ([15]; course of treatment): normalized the functions
local irritant effect (local irritant effect): no local irritant effect
toxicity [16]: limited toxicity
LD50 ([16]; iv, injected intravenously, species not given): 293 mg/kg
MTD ([16]; mouse, mice, read-out: DMT (tolerance dose)): 200 mg/kg
effect on animals' behavior [17]: in no way affected the animals's behavior
changes in blood and internal organs [18]: no changes in the blood and internal organs
changes in blood and internal organs [19]: no changes in the blood and internal organs
cases with marked improvement (crises ceased, working capacity restored) [20]: 5 cases
cases with number and intensity of fits reduced and general improvement [20]: 12 cases
vegetovascular crises ([21]; 8 of 11 patients): reduced number or even complete eliminationn of vegetovascular crises
patients with significant improvement ([21]; of 11 patients, end of the first week): 8 patients
patients with considerable improvement [22]: 20
dysphorias and patients' behavior ([23]; 18 cases): dysphorias were better endured, and the patients' behavior became more controlled
electroencephalography ([23]; 18 cases): reduction in the paroxysmal activity and normalization of recordings
cases in which attacks ceased completely or frequency reduced by more than half ([23]; of 18 cases): 14 cases
electrocardiography ([24]; 8 to 12 weeks): nor are there any changes that could be detected by electrocardiography
morphological and biochemical composition of the blood ([24]; 8 to 12 weeks): does not change the morphological and biochemical composition of the blood
habit formation ([24]; clinical): not habit-forming
toxicity ([24]; clinical): low toxicity
contraindication ([24]; human, in vivo): gastric ulcer with a tendency to frequency exacerbations
impediment to drivers ([24]; human, in vivo): no impediment to drivers
side effects or complications ([24]; prolonged administration): no side effects or complications
anticholinesterase properties (cholinesterase): do not possess anticholinesterase properties
effect on analgetic effect of analginum (analgetic effect in mice; 1/2 DMT): intensified the analgetic effect of analginum
effect on analgetic effect of morphine (analgetic effect in mice; 1/4 DMT): intensified the analgetic effect of morphine
lowest dose with analgetic effect (analgetic effect in mice; mice): 1/4
duration of analgetic effect (analgetic effect in mice; mice, 1/2 DMT): three hours
duration of analgesia (analgetic effect in mice; mice, DMT): more than five hours
advent of phenamine stereotypy (phenamine stereotypy; great doses): prevents the advent
duration of phenamine stereotypy (phenamine stereotypy; rats, 10 mg/kg to 400 mg/kg): statistically reliable reduction
prevention of death of mice (lethal dose of cocaine): 60%
tranquilizer strength ([25]; human, in vivo): relatively weak tranquilizer
night sleep effect ([25]; neuroses): light night sleep compeller
onset of sleep ([25]; neuroses): accelerates the onset of sleep
efficacy versus known drugs ([25]; neurotic and psychic disorders with vegetovascular disturbances and epileptic fits without convulsions): superior in this respect to the known drugs
side effects or complications ([25]; patients): no side effects or complications
tolerance ([25]; patients): good tolerance
relaxation effect ([25]; patients, versus benzodiazepin derivatives): absence to a marked relaxation effect

[Mg+2].[O-2] [magnesia]
effect of other treatments [1]: only a limited and short-lived effect

CN1C(=O)CN=C(c2ccccc2)c2cc(Cl)ccc21 [diazepam]
vegetotropic and antiepileptic effect [1]: most pronounced vegetotropic and antiepileptic effect
relaxing effect and sluggishness [1]: manifest a relaxing effect and produce sluggishness

COC(=O)[C@H]1[C@H]2C[C@@H]3c4[nH]c5cc(OC)ccc5c4CCN3C[C@H]2C[C@@H](OC(=O)c2cc(OC)c(OC)c(OC)c2)[C@@H]1OC [reserpine]
sensitivity to convulsant effects of corasole and caffeine [26]: increases the sensitivity of mice

— patent publication US4162311A, “Medicinal preparation with pronounced vegetotropic and antiepileptic effect for treating psychoneurotic disorders” (priority 1977, dated 1979)
